Values of other authors as cited in patent publication US20050255155A1, “Modified release cilostazol compositions” (Glenmark Pharmaceuticals Limited, priority 2004, published 2005).

Details: BCS characterisation

O=C1CCc2cc(OCCCCc3nnnn3C3CCCCC3)ccc2N1 [cilostazol, 6-[4-(1-cyclohexyl-1H-tertazole-5-yl)butoxy]-3,4-dihydro-2 (1H)-quinolinone]
solubility: low solubility
